Here are results for one substance from patent US12152060B2, “Interleukin-2 variants and methods of uses thereof” (Cugene Inc, priority 2018, dated 2024).

Test [1] has as its system regulatory T cells (CD4+CD25+FoxP3+ T cells), effector T cells and NK cells. Briefly: Treg versus effector T and NK cell proliferation and expansion in mice after a single subcutaneous injection. The class given is in vivo, mouse. To be noted: 0.3 mg/kg s.c. single dose, C57/BL6 mice. How it is done:
IL-2 variant Fc fusion proteins were administered to mice and their ability to preferentially proliferate and expand regulatory T cells (CD4+CD25+FoxP3+ T cells) over effector T cells and NK cells were determined in vivo.
Female C57/BL6 mice (7-week old) were received from Charles River Laboratory and acclimated in house for at least 7 days before the study. Vehicle (PBS), 0.3 mg/kg of each test compounds, or IL-2 benchmark compounds were subcutaneously administered to mice on day 0. Peripheral blood samples were collected into heparin-treated tubes on days 3, 5 and 7 post-treatment. Each group contained 6 mice and baseline blood was collected 2 days prior to the treatment (day-2). After red blood cell lysis, total viable mononuclear blood cells were counted by trypan blue dead cell exclusion method and proceeded to intracellular staining for immune cell phenotype and Ki67 proliferation markers using flow cytometric analysis. Cells were stained separately with two panels of antibodies as listed: 1) anti-mouse Foxp3-FITC, Ki67-PE, anti-mouse CD25-APC and anti-mouse CD4-Percpcy5.5 (1:50 dilution) for CD4+T-regulatory cells (Treg); 2) anti-mouse CD3-FITC, Ki67-PE, anti-mouse CD335-APC and anti-mouse CD8-Percpcy5.5 (1:50 dilution) for CD8+T and NK cells.

Test [2] relates to Treg cells, CD4+ Tconv, CD8 T and NK cells in blood. Briefly: Dose-response pharmacodynamics study in mice following a single injection. The class given is in vivo, mouse. How it is done: Following a single subcutaneous administration of vehicle (PBS) or P-0511 (1, 0.3, 0.1, or 0.03 mg/kg) to female Balb/C mice (n=5/group), peripheral blood was collected on day-2 as baseline, and post dose on days 3, 5, and 7. On day 7, mice were sacrificed, and spleens were harvested. Blood lymphocyte phenotyping, proliferation and expansion were measured by flow cytometry at each timepoint using fresh whole blood.

The test system of a further test is Treg cells in blood. Briefly: Pharmacodynamics study in mice following repeated administration (Q3D). The class given is in vivo, mouse. To be noted: 0.3 mg/kg s.c. Q3D x3; compared to P-0531 and Benchmark-1. The protocol:
Female Balb/C mice (7-week old) were acclimated in house for 5-7 days before the study. Vehicle (PBS), 0.3 mg/kg of P-0511, P-0512, P-0531, or Benchmark-1 compound were subcutaneously administered to mice (n=5/group) on days 0, 3, and 6. On days 3 and 9, three days after the first injection and multiple (3) injections, respectively, peripheral blood was collected. Based on earlier in vivo experiments, Treg cell activation, proliferation, and expansion were expected to peak on day 3, and thus three days post injection was selected for data collection and analysis. Changes in blood lymphocyte activation, proliferation, and expansion were measured by flow cytometry. P-0531 is the S125I equivalent of the wild type IL-2 fusion protein. The Benchmark-1 contains V91K mutation.

Test [3] has as its system delayed-type hypersensitivity (DTH) mouse model. As to the kind of experiment: KLH-induced delayed-type hypersensitivity (DTH) mouse model, ear thickness. The class given is in vivo. The settings on record: for inhibition of ear inflammation (KLH-induced DTH), separate study: Q5D. How it is done: The ability of Treg cells induced by IL-2 variants to suppress T cell antigen-driven inflammation in vivo was assessed in a model of delayed-type hypersensitivity (DTH). Female Balb/C mice (7-week old) were acclimated in house for 7 days and randomized into groups. Subcutaneous administration of vehicle (PBS), P-0511 at either 0.1 mg/kg or 0.3 mg/kg was initiated on day-2 and was given either once every 3 days (Q3D) for three injections or once every 5 days (Q5D) for two injections. Mice were then sensitized with a subcutaneous administration of 100 μg keyhole limpet hemocyanin (KLH) in 200 μl saline on day 0. For Q3D dosing, two more subcutaneous injections of PBS or P-0511 (0.1 or 0.3 mg/kg) were administered on days 1 and 4; for Q5D dosing, one additional s.c. injection of PBS, 0.1 or 0.3 mg/kg P-0511 was administered on day 3. Mice received an intradermal challenge of KLH (5 μg in 10 μl saline) in right ear on day 5. Right ear thickness was measured using a caliper on day 5 prior KLH challenge and daily from day 6 to day 8 corresponding to 24 h, 48h, and 72 h post KLH challenge. One group of mice also received 5 mg/kg daily i.p. treatment of dexamethasone from day 5 to day 8 as a positive control.
Kinetics of the DTH response using the change in ear thickness relative to baseline values (Δ ear thickness) at various times after KLH challenge was illustrated in FIG. 23.
In a separate study, dose-dependent response of P-0511 (0.1, 0.3 and 1 mg/kg, Q5D) on suppression of KLH-induced DTH was determined and compared with Benchmark-1 (0.3 mg/kg, Q5D).

Turning to “P-0511: Fc fusion protein of IL-2 variant L19H/S125I/Q126E; SEQ ID NO: 198”, the “Ki67 stimulation on CD8 T cells and NK cells” value in test [1] is “mild Ki67 stimulation”. Moreover, the “expansion of CD4+ Tconv cells, CD8 T cells or NK cells” value in test [1] was “No significant expansion”. Further, the “Treg cell proliferation and expansion (Ki67 positive Treg, % Treg over CD4+ T cells or lymphocytes)” value in test [1] (days 3, 5, 7) was “stronger in vivo efficacy”. For the same substance, the “Treg/Tconv ratio, peak (based on cell count)” value is given as 0.06 in test [2] (0.1 mg/kg single dose), 0.18 in test [2] (0.3 mg/kg single dose) and 0.27 in test [2] (1 mg/kg single dose). Besides, the “percentages of CD4+ Tconv, CD8 Teff or NK cells over the total lymphocytes” value in test [2] (0.03-1 mg/kg single dose) is given as “no statistically significant changes”. Besides, the “Treg cell counts, fold changes relative to PBS and Treg/Tconv ratio” value with Treg cells in blood was “superior capabilities to sustain Treg pool”. Besides, the “suppression of antigen-driven inflammation (Δ ear thickness)” value is recorded as “did not reach statistical significance” in test [3] (0.1 mg/kg s.c., Q3D and Q5D); “evident” in test [3] (0.3 mg/kg s.c., Q3D or Q5D, all time points post KLH challenge). Also, the “inhibition of ear inflammation (KLH-induced DTH), separate study” value in test [3] (0.1 mg/kg) was “mild”; in test [3] (0.3 mg/kg) it was “Intermediate”; in test [3] (1 mg/kg), “strong resistance to KLH-induced DTH”.
